Assay results taken from patent EP2714063B1, “VEGFR2/3-ACTIVATING AGENT FOR USE IN THE TREATMENT OF COGNITIVE DYSFUNCTIONS” (priority 2011, dated 2012).

Tests used:
VEGFD = assay type: cell-based, C57BL/6 mice; conditions: treatment from DIV5 to DIV10; 1 µM TTX, 10 µM MK801, 10 µM nifedipine
Protocol: RNA extraction and cDNA synthesis. Total RNA was isolated at DIV10 to DIV13 from hippocampal primary neuron cultures or isolated brain tissues with Rneasy Mini Kit (Qiagen, Hilden, Germany) including an optional Dnase I treatment at room temperature for 15 min according to manufacturer's instructions (Qiagen). 1.2 µg of extracted RNA was reverse transcribed into first strand cDNA using High Capacity cDNA Reverse Transcription kit (Applied Biosystems, Foster City, CA).
Real time quantitative PCR. Quantitative reverse transcriptase PCR (qRT-PCR) was done on an ABI7300 thermal cycler using Universal qRT-PCR master mix with TaqMan Gene Expression Assays for the indicated genes (Applied Biosystems). The following TaqMan Gene Expression Assays were used in this study: Gusb (Mm00446953_m1), cFos (Mm00487425_m1), VEGFD (Mm00438965_m1), VEGFC (Mm01202432_m1), VEGF (Mm01281449_m1), VEGFR3 (Mm01292618_m1), beta-actin (Mm00607939_s1), beta-2 microglobulin (Mm00437762_m1), CBP (Mm01342435_m1), p38 MAPK alpha (Mm00442497_m1), p38 MAPK beta (Mm00440955_m1). Expression of target genes was normalized against the expression of Gusb as endogenous control gene. Data were derived from at least 5 independent experiments.

hippocampal neurons = assay: Morphometric analyses (total dendritic length, Sholl analysis, spine density) of cultured neurons; assay type: cell-based, C57BL/6 mice
Protocol: Hippocampal cultures and transfection. Hippocampal neurons from newborn C57BL/6 mice were cultured as known in the art. Experiments were done after a culturing period of 10 to 14 days in vitro (DIV). DNA transfection was done on DIV8 using Lipofectamine 2000 (Invitrogen, San Diego, CA). For the studies on dendrite morphology, neurons were analyzed 4-5 days after transfection.
Morphometric analyses. For 3D Sholl Analysis, total dendritic length and spine morphology were calculated using Object-Image freeware software with a specific set of macros (written by Dr. E. Ruthazer, McGill University, Quebec). Briefly, a z-Stack acquisition was imported, calibrated in Object-Image and manually traced. Total dendritic length was then computed. For Sholl analysis, the shell interval was set at 5 µm. All analyses were performed blind. In all in vitro experiments, for each condition, a minimum of 12 neurons from three independent preparations was analyzed. For the Golgi staining quantifications of 20 neurons for each condition from 4 different injected animals per viral construct were traced and analyzed.
Immunocytochemistry. […] For the morphometric analyses, fluorescence images were acquired using a confocal laser-scanning microscope TCS SP2 (Leica, Mannheim, Germany) equipped with an inverted fluorescence microscope DM IRE2 (Leica) and Leica confocal scan software. […]

`C[C@]12N[C@H](Cc3ccccc31)c1ccccc12` [MK801] was tested, and the “VEGFD expression (mRNA)” value (VEGFD) was “significantly reduced the expression of VEGFD mRNA”.
In the case of `C[S+]([O-])c1ccc(-c2nc(-c3ccncc3)c(-c3ccc(F)cc3)[nH]2)cc1` (stereo not drawn) [SB203580], the “effect on the rVEGFD-induced rescue of dendrite length and complexity” value (hippocampal neurons; neurons expressing CaMBP4 (and CaMKIVK75E), treated for 3 days with rVEGFD) is reported as “severely compromised the ability of rVEGFD to rescue the impairment of dendrite length and complexity” and the Sholl analysis (hippocampal neurons; neurons expressing hrGFP, CaMBP4 or CaMKIVK75E, SB203580 without rVEGFD) is reported as “no difference compared to the respective untreated controls”.
